Experimental data as given in patent EP2951180B1, “2,6,7,8 SUBSTITUTED PURINES AS HDM2 INHIBITORS” (Merck Sharp & Dohme Corp., priority 2013, dated 2014).
Like-named read-outs stand apart in the source and are kept apart here.

Target: T1, HDM2 (Homo sapiens, UniProt Q00987)
T1 construct: Thioredoxin (N); made in house; host or cells: E. coli strain BL21(DE3)Rosetta
Assay: HDM2 FRET assay (inhibition of binding of FITC labeled p53-pocket peptide to HDM2)
Summary of the method: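 Compounds were tested in 10-point serial dilution against 0.5 nM recombinant HDM2 binding 3 nM fluorescein-labeled p53-pocket peptide. Detection used 0.25 nM terbium cryptate anti-6xHis antibody in PBS buffer containing 0.01% BSA and 0.01% Tween-20.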

T1 sequence (Q00987 17-125): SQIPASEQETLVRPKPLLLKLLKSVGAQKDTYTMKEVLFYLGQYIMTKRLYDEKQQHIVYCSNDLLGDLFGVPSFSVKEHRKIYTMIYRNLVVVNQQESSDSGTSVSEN

Row | Compound | IC50 (Table 9, read-out: FRET IC50) [nM] | IC50 (FRET IC50) [nM]
1 | Cc1cc(C)n(-c2nc3nc(C(=O)O)nc(N[C@H](C)C4CCC4)c3n2Cc2ccc(C(F)(F)F)cc2)n1 [Example 9.59, 6-{[(1R)-1-cyclobutylethyl]amino}-8-(3,5-dimethyl-1H-pyrazol-1-yl)-7-[4-(trifluoromethyl)benzyl]-7H-purine-2-carboxylic acid] | 292 | –
2 | C[C@@H](Nc1nc(C(=O)O)nc2nc(N3CCCC3c3cccc(F)c3)n(Cc3ccc(C(F)(F)F)cc3)c12)C1CCC1 (stereo partly drawn) [Example 9.60, 6-{[(1R)-1-cyclobutylethyl]amino}-8-[2-(3-fluorophenyl)pyrrolidin-1-yl]-7-[4-(trifluoromethyl)benzyl]-7H-purine-2-carboxylic acid] | 10.2 | –
3 | Cc1cc(-c2ccccc2)nn1-c1nc2nc(C(=O)O)nc(N[C@H](C)C3CCC3)c2n1Cc1ccc(C(F)(F)F)cc1 [Example 9.61, 6-{[(1R)-1-cyclobutylethyl]amino}-8-(5-methyl-3-phenyl-1H-pyrazol-1-yl)-7-[4-(trifluoromethyl)benzyl]-7H-purine-2-carboxylic acid] | 300 | –
4 | C[C@@H](Nc1nc(C(=O)O)nc2nc(N3CCCC[C@@H]3c3ccccc3)n(Cc3ccc(C(F)(F)F)cc3)c12)C1CCC1 [Example 9.62, 6-{[(1R)-1-cyclobutylethyl]amino}-8-[(2R)-2-phenylpiperidin-1-yl]-7-[4-(trifluoromethyl)benzyl]-7H-purine-2-carboxylic acid] | 17.3 | –
5 | C[C@@H](Nc1nc(C(=O)O)nc2nc(N3CCCC[C@H]3c3ccccc3)n(Cc3ccc(C(F)(F)F)cc3)c12)C1CCC1 [Example 9.63, 6-{[(1R)-1-cyclobutylethyl]amino}-8-[(2S)-2-phenylpiperidin-1-yl]-7-[4-(trifluoromethyl)benzyl]-7H-purine-2-carboxylic acid] | 3.06 | –
6 | CC(C)CC1COCCN1c1nc2nc(C(=O)O)nc(N[C@H](C)C3CCC3)c2n1Cc1ccc(C(F)(F)F)cc1 (stereo partly drawn) [Example 9.66, 6-{[(1R)-1-cyclobutylethyl]amino}-8-[3-(2-methylpropyl)morpholin-4-yl]-7-[4-(trifluoromethyl)benzyl]-7H-purine-2-carboxylic acid] | 6.07 | –
7 | C[C@@H](Nc1nc(-c2noc(=O)[nH]2)nc2nc(N3CCCCC3c3ccccc3)n(Cc3ccc(C(F)(F)F)cc3)c12)C1CCC1 (stereo partly drawn) [Example 9.67, 3-(6-{[(1R)-1-cyclobutylethyl]amino}-8-(2-phenylpiperidin-1-yl)-7-[4-(trifluoromethyl)benzyl]-7H-purin-2-yl)-1,2,4-oxadiazol-5(4H)-one] | 12.7 | –
8 | C[C@@H](Nc1nc(C(=O)O)nc2nc(N3CCCCC3Cc3cccc(C(F)(F)F)c3)n(Cc3ccc(C(F)(F)F)cc3)c12)C1CCC1 (stereo partly drawn) [Example 9.68, 6-{[(1R)-1-cyclobutylethyl]amino}-7-[4-(trifluoromethyl)benzyl]-8-{2-[3-(trifluoromethyl)benzyl]piperidin-1-yl}-7H-purine-2-carboxylic acid] | 110 | –
9 | C[C@@H](Nc1nc(C(=O)O)nc2nc(N3CCCCC3Cc3ccc(F)cc3)n(Cc3ccc(C(F)(F)F)cc3)c12)C1CCC1 (stereo partly drawn) [Example 9.69, 6-{[(1R)-1-cyclobutylethyl]amino}-8-[2-(4-fluorobenzyl)piperidin-1-yl]-7-[4-(trifluoromethyl)benzyl]-7H-purine-2-carboxylic acid] | 7.92 | –
10 | COc1ccc(C2CCCCN2c2nc3nc(C(=O)O)nc(N[C@H](C)C4CCC4)c3n2Cc2ccc(C(F)(F)F)cc2)cc1 (stereo partly drawn) [Example 9.70, 6-{[(1R)-1-cyclobutylethyl]amino}-8-[2-(4-methoxyphenyl)piperidin-1-yl]-7-[4-(trifluoromethyl)benzyl]-7H-purine-2-carboxylic acid] | 9.29 | –
11 | CCC(c1ccccc1)N(C)c1nc2nc(-c3noc(=O)[nH]3)nc(N[C@H](C)C3CCC3)c2n1Cc1ccc(C(F)(F)F)c(F)c1 (stereo partly drawn) [Example 9.71, 3-(6-{[(1R)-1-cyclobutylethyl]amino}-7-[3-fluoro-4-(trifluoromethyl)benzyl]-8-[methyl(1-phenylpropyl)amino]-7H-purin-2-yl)-1,2,4-oxadiazol-5(4H)-one] | 18.1 | –
12 | CC(c1ccccn1)N(C)c1nc2nc(-c3noc(=O)[nH]3)nc(N[C@H](C)C3CCC3)c2n1Cc1ccc(C(F)(F)F)c(F)c1 (stereo partly drawn) [Example 9.72, 3-(6-{[(1R)-1-cyclobutylethyl]amino}-7-[3-fluoro-4-(trifluoromethyl)benzyl]-8-[methyl(1-pyridin-2-ylethyl)amino]-7H-purin-2-yl)-1,2,4-oxadiazol-5(4H)-one] | 4.64 | –
13 | CC(c1cccc(F)c1)N(C)c1nc2nc(-c3noc(=O)[nH]3)nc(N[C@H](C)C3CCC3)c2n1Cc1ccc(C(F)(F)F)c(F)c1 (stereo partly drawn) [Example 9.73, 3-(6-{[(1R)-1-cyclobutylethyl]amino}-8-{[1-(3-fluorophenyl)ethyl](methyl)amino}-7-[3-fluoro-4-(trifluoromethyl)benzyl]-7H-purin-2-yl)-1,2,4-oxadiazol-5(4H)-one] | 16.2 | –
14 | C[C@@H](Nc1nc(C(=O)O)nc2nc(N3CCCC34CCc3ccccc34)n(Cc3ccc(C(F)(F)F)cc3)c12)C1CCC1 (stereo partly drawn) [Example 9.74, 6-{[(1R)-1-cyclobutylethyl]amino}-8-(2,3-dihydro-1'H-spiro[indene-1,2'-pyrrolidin]-1'-yl)-7-[4-(trifluoromethyl)benzyl]-7H-purine-2-carboxylic acid] | 12.9 | –
15 | CC(Nc1nc2nc(-c3noc(=O)[nH]3)nc(N[C@H](C)C3CCC3)c2n1Cc1ccc(C(F)(F)F)cc1)c1ccccn1 (stereo partly drawn) [Example 9.75, 3-(6-{[(1R)-1-cyclobutylethyl]amino}-8-[(1-pyridin-2-ylethyl)amino]-7-[4-(trifluoromethyl)benzyl]-7H-purin-2-yl)-1,2,4-oxadiazol-5(4H)-one] | 8.12 | –
16 | C[C@@H](Nc1nc(C(=O)O)nc2nc(N3C4CCC3COC4)n(Cc3ccc(C(F)(F)F)cc3)c12)C1CCC1 [Example 9.76, 6-{[(1R)-1-cyclobutylethyl]amino}-8-(3-oxa-8-azabicyclo[3.2.1]oct-8-yl)-7-[4-(trifluoromethyl)benzyl]-7H-purine-2-carboxylic acid] | – | 15.9
17 | CC(C)CN(C)c1nc2nc(-c3noc(=O)[nH]3)nc(N[C@H](C)C3CCC3)c2n1Cc1ccc(C(F)(F)F)cc1 [Example 9.81, 3-(6-{[(1R)-1-cyclobutylethyl]amino}-8-[methyl(2-methylpropyl)amino]-7-[4-(trifluoromethyl)benzyl]-7H-purin-2-yl)-1,2,4-oxadiazol-5(4H)-one] | 11.6 | –
18 | C[C@@H](Nc1nc(-c2noc(=O)[nH]2)nc2nc(N(C)C3CCCC3)n(Cc3ccc(C(F)(F)F)cc3)c12)C1CCC1 [Example 9.82, 3-(6-{[(1R)-1-cyclobutylethyl]amino}-8-[cyclopentyl(methyl)amino]-7-[4-(trifluoromethyl)benzyl]-7H-purin-2-yl)-1,2,4-oxadiazol-5(4H)-one] | 13.7 | –
19 | C[C@@H](Nc1nc(-c2noc(=O)[nH]2)nc2nc(N3CCCC3(C)C)n(Cc3ccc(C(F)(F)F)cc3)c12)C1CCC1 [Example 9.83, 3-(6-{[(1R)-1-cyclobutylethyl]amino}-8-(2,2-dimethylpyrrolidin-1-yl)-7-[4-(trifluoromethyl)benzyl]-7H-purin-2-yl)-1,2,4-oxadiazol-5(4H)-one] | 25.6 | –
20 | C[C@@H](Nc1nc(-c2noc(=O)[nH]2)nc2nc(N(C)CC(C)(C)C)n(Cc3ccc(C(F)(F)F)cc3)c12)C1CCC1 [Example 9.84, 3-(6-{[(1R)-1-cyclobutylethyl]amino}-8-[(2,2-dimethylpropyl)(methyl)amino]-7-[4-(trifluoromethyl)benzyl]-7H-purin-2-yl)-1,2,4-oxadiazol-5(4H)-one] | 13.3 | –
21 | C[C@@H](Nc1nc(-c2noc(=O)[nH]2)nc2nc(N3CCCCC34CC4)n(Cc3ccc(C(F)(F)F)cc3)c12)C1CCC1 [Example 9.85, 3-{8-(4-azaspiro[2.5]oct-4-yl)-6-{[(1R)-1-cyclobutylethyl]amino}-7-[4-(trifluoromethyl)benzyl]-7H-purin-2-yl}-1,2,4-oxadiazol-5(4H)-one] | 9.84 | –
22 | CC(C)C1CCCN1c1nc2nc(-c3noc(=O)[nH]3)nc(N[C@H](C)C3CCC3)c2n1Cc1ccc(C(F)(F)F)cc1 (stereo partly drawn) [Example 9.86, 3-(6-{[(1R)-1-cyclobutylethyl]amino}-8-[2-(1-methylethyl)pyrrolidin-1-yl]-7-[4-(trifluoromethyl)benzyl]-7H-purin-2-yl)-1,2,4-oxadiazol-5(4H)-one] | 10.2 | –
23 | C[C@@H](Nc1nc(-c2noc(=O)[nH]2)nc2nc(N(C)C3CCCCC3)n(Cc3ccc(C(F)(F)F)cc3)c12)C1CCC1 [Example 9.87, 3-(6-{[(1R)-1-cyclobutylethyl]amino}-8-[cyclohexyl(methyl)amino]-7-[4-(trifluoromethyl)benzyl]-7H-purin-2-yl)-1,2,4-oxadiazol-5(4H)-one] | 23.4 | –
24 | C[C@@H](Nc1nc(-c2noc(=O)[nH]2)nc2nc(N3CCOCC3(C)C)n(Cc3ccc(C(F)(F)F)cc3)c12)C1CCC1 [Example 9.88, 3-(6-{[(1R)-1-cyclobutylethyl]amino}-8-(3,3-dimethylmorpholin-4-yl)-7-[4-(trifluoromethyl)benzyl]-7H-purin-2-yl)-1,2,4-oxadiazol-5(4H)-one] | 12.2 | –
25 | COCC1(N(C)c2nc3nc(-c4noc(=O)[nH]4)nc(N[C@H](C)C4CCC4)c3n2Cc2ccc(C(F)(F)F)cc2)CC1 [Example 9.89, 3-(6-{[(1R)-1-cyclobutylethyl]amino}-8-{[1-(methoxymethyl)cyclopropyl] (methyl)amino}-7-[4-(trifluoromethyl)benzyl]-7H-purin-2-yl)-1,2,4-oxadiazol-5(4H)-one] | 22.6 | –
26 | C[C@@H](Nc1nc(-c2noc(=O)[nH]2)nc2nc(N3CCCCC3CF)n(Cc3ccc(C(F)(F)F)cc3)c12)C1CCC1 (stereo partly drawn) [Example 9.90, 3-(6-{[(1R)-1-cyclobutylethyl]amino}-8-[2-(fluoromethyl)piperidin-1-yl]-7-[4-(trifluoromethyl)benzyl]-7H-purin-2-yl)-1,2,4-oxadiazol-5(4H)-one] | 12.1 | –
